Results from patent publication US20150309031A2, “COMPOSITIONS AND METHODS FOR PROGNOSIS AND TREATMENT OF CANCER” (NOVAZOI THERANOSTICS, priority 2013, published 2015).

Legend:
Type in all cases: cell-based
MDA-MB-231 (231) cells = assay: subG1 (hypodiploid) fraction by flow cytometry, 231 cells
Procedure: (§1) Trypsinized cells were resuspended in PBS at 10^6 cells/ml. Cells were then fixed by addition of ice-cold 70% ethanol. Ethanol-fixed cells were kept overnight at 4° C. before staining. Cells were pelleted and washed twice with PBS. Cell pellets were incubated for an hour at room temperature with mouse anti-MPM-2 antibody (Millipore, Mass., USA), followed by 1 h incubation with Alexa-488 anti-mouse secondary antibody (Life Technologies, NY, USA). Finally cells were washed, pelleted and resuspended in propidium iodide-containing isotonic buffer (0.1 mg/mL) and 0.5% Triton X-100. Cell cycle distribution was determined by flow cytometry using an LSR Fortessa Flow cytometer (BD Biosciences, CA, USA) and analyzed using Flowjo software (Tree Star, OR, USA). […] The duration, highest degree, and rapidity of onset of MA varied between drugs, drug concentrations, and cell lines (FIGS. 2A, 2B). In general, the maximum MA achieved was less pronounced in Nos- and PJ-treated cells (FIGS. 2A, 2B). Drug-induced onset of MA was corroborated by substantial increases in cyclin B1 levels in all cell lines (FIG. 2C). […] Instances where the subG1 fraction was elevated without cleaved caspase-3 may either represent caspase-independent cell death or the presence of hypodiploid cells whose fate is unclear.

HeLa cells [1] = assay: subG1 (hypodiploid) fraction by flow cytometry, HeLa cells
Procedure: as §1

PC3 cells = assay: subG1 (hypodiploid) fraction by flow cytometry, PC3 cells
Procedure: as §1

[2] = test system: adult human dermal fibroblasts (HDF); assay: subG1 (hypodiploid) fraction by flow cytometry, HDFs
[3] = test system: mammary fibrocystic (MCF10A) cells; assay: subG1 (hypodiploid) fraction by flow cytometry, MCF10A cells; details: for change of peak subG1 percent compared to controls (in words): MCF10A cells; for Peak subG1 percent over 48 h: MCF10A
MCF10A cells = assay: Centrosome amplification (CA) by microscopy, MCF10A cells; details: for change of CA over control levels (in words): interphase and mitotic cells, over 24 h
Procedure: (§2) Consequently, CA was assessed in cultures treated with different concentrations of declustering drugs for 6, 12, 18, or 24 h and untreated controls via microscopy. Centrosomes were identified by γ-tubulin and centrin-2 colocalization at discrete foci. […] The peak percent CA detected over 24 h is shown in FIG. 6 (only statistically significant (P<0.05) increases over control values are represented in the Figures). Representative confocal micrographs of CA in interphase and mitotic cells, both control and drug treated, are depicted in FIG. 7. No significant correlations between the degree of CA (FIG. 5A) and the expression levels of PLK4, Cyclin E, and Aurora A were found (FIG. 4).
(§3) To determine whether the CA-inducing activity of declustering drugs is restricted to cancer cells, two non-malignant cell lines, mammary fibrocystic (MCF10A) cells and adult human dermal fibroblasts were treated with these drugs. Neither one of RBN, GF or PJ induced CA or cell death (Table 8) in these cell lines. […] In comparison, 10 and 25 μM RBN increased peak CA over controls in interphase cells (p<0.001 and p=0.001, respectively), with the lower concentration dramatically augmenting peak CA to 56% of cells versus 15% for the higher dose (FIG. 9B). Only 10 but not 25 μM RBN increased the extent of CA in mitotic cells, and this upregulation was only slight (10%, p=0.041).

[4] = test system: human dermal fibroblasts (HDFs); assay: Centrosome amplification (CA) by microscopy, HDFs; details: for change of CA over controls (in words): any concentration or time point assessed
Procedure: as §2, §3

231 cells [5] = assay: Mitotic arrest (MA) by flow cytometry, 231 cells; details: 10 μM
Procedure: FIGS. 2A-2C depict mitotic arrest (MA) phenotypes observed upon treatment with putative centrosome declustering drugs. […] Declustering drugs included Nos, BN, RBN, PJ, and GF, all at 10 and 25 μM except GF, which was used at 25 and 50 μM, and cell lines included 231, PC3, and HeLa. […] In general, MA increased from 0 h to a peak near 24 h, followed by a decline in MA that coincided with increases in subG1 fractions. Results are representative of three independent experiments. […] Drugs are ranked in order of increasing peak subG1 from bottom to top along the y axis. […] Increased levels of both cyclins compared with controls (0 h) were detected across cell lines with variable expression patterns depending on the drug and cell line. To evaluate apoptosis, cleaved caspase-3 (C. Caspase-3) was immunoblotted and eventual increases over controls were universally detected, typically by 24 h.
To evaluate the impact of putative declustering drugs on cell cycle progression and hypodiploidy (<2N DNA content, which may indicate apoptotic cells), MDA-MB-231 (231), PC3, and HeLa cells were treated with different concentrations of declustering drugs, stained with propidium iodide, labeled with anti-MPM2 antibody, and then assessed by flow cytometry at multiple time points over 48 h. […]

HDFs and MCF10A cells = assay: Spindle multipolarity (MP) in non-malignant cell lines
231 cells [6] = assay: Centrosome amplification (CA) by microscopy, 231 cells; details: 25 μM
Procedure: (§4) Consequently, CA was assessed in cultures treated with different concentrations of declustering drugs for 6, 12, 18, or 24 h and untreated controls via microscopy. […] The peak percent CA detected over 24 h is shown in FIG. 6 (only statistically significant (P<0.05) increases over control values are represented in the Figures). Representative confocal micrographs of CA in interphase and mitotic cells, both control and drug treated, are depicted in FIG. 7. […] To better understand the “potency” of drug-induced CA with time, the average fold change in CA over controls over 24 h was assessed (FIG. 5A), whereby the extent of CA across time points (i.e., 6, 12, 18, and 24 h) was averaged and then divided by the extent of CA in control (i.e., 0 h). […] For Nos and BN, there was no major difference in CA levels in interphase versus mitotic cells.

HeLa cells [7] = assay: Centrosome amplification (CA) by microscopy, HeLa cells; details: interphase, 25 μM
Procedure: as §4

[8] = test system: MDA-MB-231 (231), PC3, and HeLa cells; assay: Mitotic arrest (MA) by flow cytometry (MPM2/PI), across cell lines; details: coarse-grained categories
Procedure: Trypsinized cells were resuspended in PBS at 10^6 cells/ml. Cells were then fixed by addition of ice-cold 70% ethanol. Ethanol-fixed cells were kept overnight at 4° C. before staining. Cells were pelleted and washed twice with PBS. Cell pellets were incubated for an hour at room temperature with mouse anti-MPM-2 antibody (Millipore, Mass., USA), followed by 1 h incubation with Alexa-488 anti-mouse secondary antibody (Life Technologies, NY, USA). Finally cells were washed, pelleted and resuspended in propidium iodide-containing isotonic buffer (0.1 mg/mL) and 0.5% Triton X-100. Cell cycle distribution was determined by flow cytometry using an LSR Fortessa Flow cytometer (BD Biosciences, CA, USA) and analyzed using Flowjo software (Tree Star, OR, USA).
To evaluate the impact of putative declustering drugs on cell cycle progression and hypodiploidy (<2N DNA content, which may indicate apoptotic cells), MDA-MB-231 (231), PC3, and HeLa cells were treated with different concentrations of declustering drugs, stained with propidium iodide, labeled with anti-MPM2 antibody, and then assessed by flow cytometry at multiple time points over 48 h. […] The duration, highest degree, and rapidity of onset of MA varied between drugs, drug concentrations, and cell lines (FIGS. 2A, 2B). In general, the maximum MA achieved was less pronounced in Nos- and PJ-treated cells (FIGS. 2A, 2B). […]

Row | Compound | Peak subG1 percent over 48 h (MDA-MB-231 (231) cells; 10 μM) [%] | Peak subG1 percent over 48 h (MDA-MB-231 (231) cells; 25 μM) [%] | maximum subG1 fraction relative to control (MDA-MB-231 (231) cells; 25 μM) [× control] | Peak subG1 percent over 48 h (HeLa cells [1]; 10 μM) [%] | Peak subG1 percent over 48 h (HeLa cells [1]; 25 μM) [%] | Peak subG1 percent over 48 h (PC3 cells; 10 μM) [%] | Peak subG1 percent over 48 h (PC3 cells; 25 μM) [%] | maximum subG1 fraction relative to control (PC3 cells; 25 μM) [× control] | Peak subG1 percent over 48 h ([2]; 10 μM) [%] | Peak subG1 percent over 48 h ([2]; 25 μM) [%] | change of peak subG1 percent compared to controls (in words) [3] | Peak subG1 percent over 48 h ([3]; 10 μM) [%] | Peak subG1 percent over 48 h ([3]; 25 μM) [%] | change of CA over control levels (in words) (MCF10A cells) | change of CA over controls (in words) [4] | induction of MP over control levels (HDFs and MCF10A cells) | also measured
1 | COc1ccc2c(c1OC)C(=O)O[C@@H]2[C@H]1c2c(c(Br)c3c(c2OC)OCO3)CCN1C [BN, 9-bromonoscapine] | 32.5 | 65.2 | 9.3 | 42.0 | 54.9 | 46.0 | 42.8 | 9.2 | 16.5 | 20.4 | did not cause a significant increase in peak subG1 percent compared to controls | 3.5 | 3.0 | neither concentrations of Nos or BN significantly increased CA over control levels | did not significantly increase the extent of CA over controls |  | maximum subG1 fraction relative to control (HeLa cells [1]; 25 μM): 4.4 × control; mitotic arrest (in words) (231 cells [5]): did not cause any MA
2 | COC1=CC(=O)C[C@@H](C)[C@]12Oc1c(Cl)c(OC)cc(OC)c1C2=O [GF, griseofulvin] |  | 62.0 | 6.4 |  | 59.5 |  | 33.7 |  |  | 32.9 | did increase peak SubG1 in MCF10A cells compared to controls |  | 22.7 |  |  | significantly induce MP over control levels | Peak subG1 percent over 48 h (MDA-MB-231 (231) cells; 50 μM): 60.0%; Peak subG1 percent over 48 h (HeLa cells [1]; 50 μM): 79.0%; maximum subG1 fraction relative to control (HeLa cells [1]; 50 μM): 4.3 × control; Peak subG1 percent over 48 h (PC3 cells; 50 μM): 39.5%; maximum subG1 fraction relative to control (PC3 cells; 50 μM): 16.3 × control; Peak subG1 percent over 48 h ([2]; 50 μM): 38.3%; Peak subG1 percent over 48 h ([3]; 50 μM): 35.1%; peak interphase CA (MCF10A cells; interphase, 25 and 50 μM): 13-16%; change of CA in mitotic cells (in words) (MCF10A cells; mitotic, 25 and 50 μM): no increase was observed in mitotic cells; peak CA in interphase cells ([4]; interphase, 25 and 50 μM): 14-15%
3 | COc1ccc2c(c1OC)C(=O)O[C@@H]2[C@H]1c2c(cc3c(c2OC)OCO3)CCN1C [Nos, noscapine] | 26.3 | 43.9 |  | 25.0 | 50.1 | 29.9 | 32.7 |  | 14.8 | 11.2 | did not cause a significant increase in peak subG1 percent compared to controls | 4.1 | 4.2 | neither concentrations of Nos or BN significantly increased CA over control levels | did not significantly increase the extent of CA over controls |  | induction of significant CA (231 cells [6]): failed to induce significant CA
4 | CN(C)CC(=O)Nc1ccc2[nH]c(=O)c3ccccc3c2c1 [PJ, PJ-34] | 37.0 | 55.0 | 10.4 | 48.5 | 64.4 | 62.4 | 48.4 | 7.9 | 13.6 | 28.2 | did not cause a significant increase in peak subG1 percent compared to controls | 6.9 | 9.1 | increased the peak extent of CA in interphase and mitotic cells | no significant impact on CA in HDFs | significantly induce MP over control levels | maximum subG1 fraction relative to control (HeLa cells [1]; 10 μM): 4.8 × control; fold increase in peak CA extent, interphase cells (HeLa cells [7]): ~20 fold; peak / final extent of CA in interphase cells (HeLa cells [7]): < 20%; peak extent of CA in interphase cells (MCF10A cells; interphase, 10 μM): 8%; mean time to peak MA (MA:TRH) [8]: ~12 h
